# In PubChem BioAssay AID1919015 (Molecular Pharmacology Branch, DTP, NCI, 2023):
# Test system: OVCAR-5 complex spheroids with HUVEC/MSC, viability, % test/control
# Assay: Anticancer human tumor OVCAR-5 cell line growth inhibition [AhR];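 also: spheroids exposed to compounds for 7 days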;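 as to viability, T/C: 100% = DMSO vehicle control wells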
# Settings: for IC50: curve of first compound; for viability, T/C: stronger effect = lower value
# Procedure, shortened: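 Agents were dosed in half-log steps down from roughly clinical Cmax, or from 10 microM where Cmax was unknown, alone and with AhR antagonists. Read-out: percent test/control growth of tumor spheroids containing HUVEC and MSC stromal cells.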
# [1] = second compound 0.1 µM, first compound 0.0316 µM
# [2] = second compound 0.1 µM, first compound 0.1 µM
# [3] = second compound 0.1 µM, first compound 0.316 µM
# [4] = second compound 0.1 µM, first compound 1 µM
# [5] = second compound 0.1 µM, first compound 3.16 µM
# [6] = second compound 0.1 µM, first compound 10 µM
# [7] = second compound 0.316 µM, first compound 0.0316 µM
# [8] = second compound 0.316 µM, first compound 0.1 µM
# [9] = second compound 0.316 µM, first compound 0.316 µM
# [10] = second compound 0.316 µM, first compound 1 µM
# [11] = second compound 0.316 µM, first compound 3.16 µM
# [12] = second compound 0.316 µM, first compound 10 µM
# [13] = second compound 1 µM, first compound 0.0316 µM
# [14] = second compound 1 µM, first compound 0.1 µM
# [15] = second compound 1 µM, first compound 0.316 µM
# [16] = second compound 1 µM, first compound 1 µM
# [17] = second compound 1 µM, first compound 3.16 µM
# [18] = second compound 1 µM, first compound 10 µM
# [19] = second compound 3.16 µM, first compound 0.0316 µM
# [20] = second compound 3.16 µM, first compound 0.1 µM
# [21] = second compound 3.16 µM, first compound 0.316 µM
# [22] = second compound 3.16 µM, first compound 1 µM
# [23] = second compound 3.16 µM, first compound 3.16 µM
# [24] = second compound 3.16 µM, first compound 10 µM
# [25] = second compound 10 µM, first compound 0.0316 µM
# [26] = second compound 10 µM, first compound 0.1 µM
# [27] = second compound 10 µM, first compound 0.316 µM
# [28] = second compound 10 µM, first compound 1 µM
# [29] = second compound 10 µM, first compound 3.16 µM
# [30] = second compound 10 µM, first compound 10 µM
SMILES,IC50 (second compound 0.1 µM),IC50 (second compound 0.316 µM),IC50 (second compound 1 µM),IC50 (second compound 3.16 µM),IC50 (second compound 10 µM),"viability, T/C [1]","viability, T/C [2]","viability, T/C [3]","viability, T/C [4]","viability, T/C [5]","viability, T/C [6]","viability, T/C [7]","viability, T/C [8]","viability, T/C [9]","viability, T/C [10]","viability, T/C [11]","viability, T/C [12]","viability, T/C [13]","viability, T/C [14]","viability, T/C [15]",other results
COc1cccc2c1C(=O)c1c(O)c3c(c(O)c1C2=O)CC(O)(C(=O)CO)CC3OC1CC(N)C(O)C(C)O1 (stereo not given) + Cc1cncc(-c2nc(NCCc3c[nH]c4ccccc34)c3ncn(C(C)C)c3n2)c1,310 nM,240 nM,241 nM,< 31.6 nM,< 31.6 nM,63.7%,54.8%,49%,27.9%,1.4%,1.85%,61.8%,54%,47.3%,26.9%,2.85%,1.79%,55.4%,51.6%,48.2%,"viability, T/C [16]: 24.3%; viability, T/C [17]: 1.27%; viability, T/C [18]: 1.8%; viability, T/C [19]: 42.7%; viability, T/C [20]: 42.8%; viability, T/C [21]: 39.3%; viability, T/C [22]: 19.3%; viability, T/C [23]: 1.16%; viability, T/C [24]: 1.68%; viability, T/C [25]: 5.12%; viability, T/C [26]: 5.58%; viability, T/C [27]: 13.1%; viability, T/C [28]: 4.16%; viability, T/C [29]: 1.37%; viability, T/C [30]: 1.89%"
CC(C)c1c(-c2ccccc2)nc2c(C#N)c[nH]n2c1=O + Cc1cncc(-c2nc(NCCc3c[nH]c4ccccc34)c3ncn(C(C)C)c3n2)c1,> 10000 nM,> 10000 nM,> 10000 nM,> 10000 nM,< 31.6 nM,100%,99.5%,100%,100%,96.4%,106%,101%,103%,98.5%,102%,95.2%,106%,96.8%,99.1%,100%,"viability, T/C [16]: 94.1%; viability, T/C [17]: 94.8%; viability, T/C [18]: 103%; viability, T/C [19]: 81.5%; viability, T/C [20]: 84.1%; viability, T/C [21]: 86.1%; viability, T/C [22]: 83.6%; viability, T/C [23]: 90.1%; viability, T/C [24]: 88.7%; viability, T/C [25]: 14.2%; viability, T/C [26]: 14.2%; viability, T/C [27]: 17.8%; viability, T/C [28]: 16.3%; viability, T/C [29]: 16%; viability, T/C [30]: 25.1%"
